Assay results published in ChEMBL document CHEMBL1201862, “PubChem BioAssay data set” (2004).
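Interpolation was linear, between the two tested concentrations surrounding the appropriate level; five concentrations were tested over 48 hours in 96-well plates. GI50 marks 50% less growth.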 Calls of active or inactive are those of the source. Cut-off read from the data, not from the text of the source: active = GI50 up to about 1.1 µM and inactive = higher.

Tests used:
Test in all cases: NCI-60 cell line screen, 48 h
HCC 2998 = tested on: HCC 2998
SN12C = tested on: SN12C
SF-295 = tested on: SF-295
UO-31 = tested on: UO-31
LOX IMVI = tested on: LOX IMVI
OVCAR-3 = tested on: OVCAR-3
KM12 = tested on: KM12
Hs-578T = tested on: Hs-578T
HOP-62 = tested on: HOP-62
SF-268 = tested on: SF-268
SNB-75 = tested on: SNB-75
UACC-62 = tested on: UACC-62
M14 = tested on: M14
OVCAR-4 = tested on: OVCAR-4
HOP-92 = tested on: HOP-92
SW-620 = tested on: SW-620
K562 = tested on: K562
BT-549 = tested on: BT-549
MOLT-4 = tested on: MOLT-4

Measured: GI50

O=[N+]([O-])c1cc(-[n+]2cc([O-])on2)ccc1Cl
inactive: HCC 2998 18.1 µM | SN12C 16.3 µM | SF-295 23.7 µM | UO-31 17.3 µM | LOX IMVI 17.9 µM | OVCAR-3 37.3 µM | KM12 22 µM | Hs-578T 13.6 µM | HOP-62 15.3 µM | SF-268 22.2 µM | SNB-75 25.8 µM | UACC-62 27.8 µM | M14 15.5 µM | OVCAR-4 14 µM | HOP-92 19.2 µM | SW-620 13.4 µM | K562 42.4 µM | BT-549 19.9 µM

Cc1ccc(S(=O)(=O)NC(=O)NC(CC(N)=O)C(=O)O)cc1 (stereo not given)
inactive: SN12C > 100 µM | SF-295 > 100 µM | UO-31 > 100 µM | LOX IMVI > 100 µM | KM12 > 100 µM | Hs-578T > 100 µM | HOP-62 > 100 µM | SF-268 > 100 µM | SNB-75 > 100 µM | UACC-62 > 100 µM | M14 > 100 µM | OVCAR-4 > 100 µM | HOP-92 > 100 µM | SW-620 > 100 µM | K562 > 100 µM | MOLT-4 > 100 µM | BT-549 > 100 µM

Cc1cc(C(=O)CBr)c(CN2C(=O)c3ccccc3C2=O)c(=O)n1C
inactive: HCC 2998 38.1 µM | SN12C 17.6 µM | SF-295 38.5 µM | UO-31 18.4 µM | LOX IMVI 12.9 µM | OVCAR-3 17.2 µM | KM12 19.5 µM | Hs-578T 15.2 µM | HOP-62 47.4 µM | SF-268 24.4 µM | SNB-75 22.8 µM | UACC-62 16.6 µM | M14 43.1 µM | OVCAR-4 14.7 µM | SW-620 3.78 µM | K562 3.19 µM | MOLT-4 1.93 µM | BT-549 18.1 µM

O=S1(=O)c2ccccc2NC(=S)CC1c1ccccc1 (stereo not given)
inactive: SN12C > 100 µM | SF-295 26.3 µM | UO-31 > 100 µM | LOX IMVI > 100 µM | OVCAR-3 > 100 µM | KM12 > 100 µM | Hs-578T > 100 µM | HOP-62 > 100 µM | SF-268 > 100 µM | SNB-75 > 100 µM | UACC-62 > 100 µM | M14 > 100 µM | OVCAR-4 > 100 µM | K562 > 100 µM | MOLT-4 > 100 µM | BT-549 > 100 µM

CCOC(=O)c1nc2ccccc2nc1Nc1ccc(Cl)c(Cl)c1
inactive: HCC 2998 > 100 µM | SN12C 81.5 µM | UO-31 40.8 µM | OVCAR-3 59.3 µM | KM12 > 100 µM | Hs-578T 34.4 µM | HOP-62 30.4 µM | SF-268 37.6 µM | SNB-75 20.9 µM | UACC-62 25.6 µM | M14 57.8 µM | OVCAR-4 27.9 µM | HOP-92 16.8 µM | K562 76.7 µM | MOLT-4 > 100 µM | BT-549 12.8 µM

Cn1c2c(c3ccccc31)CC1c3c(c4ccccc4n3C)CC21 (stereo not given)
inactive: HCC 2998 > 100 µM | SN12C > 100 µM | SF-295 > 100 µM | UO-31 > 100 µM | LOX IMVI > 100 µM | OVCAR-3 > 100 µM | KM12 > 100 µM | Hs-578T > 100 µM | HOP-62 > 100 µM | SF-268 > 100 µM | SNB-75 > 100 µM | UACC-62 > 100 µM | M14 > 100 µM | OVCAR-4 > 100 µM | HOP-92 > 100 µM | SW-620 > 100 µM | K562 > 100 µM | MOLT-4 > 100 µM | BT-549 > 100 µM

CSCCCNC(=O)c1csc(-c2csc(CCN)n2)n1
inactive: HCC 2998 > 100 µM | SN12C 68.1 µM | SF-295 > 100 µM | UO-31 38.6 µM | LOX IMVI 59.7 µM | OVCAR-3 > 100 µM | KM12 > 100 µM | Hs-578T 56.8 µM | HOP-62 > 100 µM | SF-268 > 100 µM | UACC-62 > 100 µM | M14 > 100 µM | OVCAR-4 > 100 µM | HOP-92 > 100 µM | SW-620 > 100 µM | K562 > 100 µM | MOLT-4 > 100 µM | BT-549 > 100 µM

COc1cc(/C=C/c2ccc(OC)c(OC)c2)cc(OC)c1 [(E)-3,4,3',5'-TETRAMETHOXYSTILBENE]
inactive: SN12C 31.3 µM | SF-295 22.2 µM | UO-31 19.1 µM | LOX IMVI 19.9 µM | OVCAR-3 23.7 µM | KM12 15.5 µM | Hs-578T 25.8 µM | HOP-62 63.7 µM | SF-268 39.5 µM | SNB-75 34 µM | UACC-62 19.8 µM | M14 28.1 µM | OVCAR-4 53.2 µM | HOP-92 > 100 µM | SW-620 28.7 µM | K562 41.1 µM | MOLT-4 46.6 µM | BT-549 23.7 µM
